The text below walks through data of ChEMBL document CHEMBL1142393, “Design and characterization of mechanism-based inhibitors for the tyrosine aminomutase SgTAM” (Bioorg Med Chem Lett, 2008).

Molecules are shown by their SMILES.

The experiment is described as follows: Inhibition of Streptomyces globisporus TAM.
`O=C(O)[C@H]1O[C@@H]1c1ccc(F)cc1` yielded an IC50 of 11.6 mM.
Compound `O=C(O)[C@H]1O[C@@H]1c1ccccc1` came in with an IC50 of 5.8 mM.
With `COc1ccc([C@H]2O[C@@H]2C(=O)O)cc1` the figure was 3 mM; with `N[C@H](c1ccccc1)C(F)(F)C(=O)O`, 7.3 mM.
